According to patent publication US10343992B2, “1-cyano-pyrrolidine compounds as USP30 inhibitors” (MISSION THERAPEUTICS LIMITED, priority 2015, dated 2019):

target: USP30 (Homo sapiens (Human), UniProt Q70CQ3); experiment: USP30 biochemical FP or FI IC50 assay; settings: read-out: IC50 range
Procedure, shortened: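 Human USP30 preincubated 30 min at room temperature with compound (8-point series, 100 µM top final) in Tris pH 7.5, Tween 20, BSA, 5 mM β-mercaptoethanol, in duplicate. FP format: 50 nM TAMRA-peptide–isopeptide-ubiquitin substrate, ex 540/em 590. FI format: 100 nM ubiquitin-rhodamine 110, ex 487/em 535. Both read at 0 and after 2 h at room temperature.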

USP30, sequence (Q70CQ3 57-517): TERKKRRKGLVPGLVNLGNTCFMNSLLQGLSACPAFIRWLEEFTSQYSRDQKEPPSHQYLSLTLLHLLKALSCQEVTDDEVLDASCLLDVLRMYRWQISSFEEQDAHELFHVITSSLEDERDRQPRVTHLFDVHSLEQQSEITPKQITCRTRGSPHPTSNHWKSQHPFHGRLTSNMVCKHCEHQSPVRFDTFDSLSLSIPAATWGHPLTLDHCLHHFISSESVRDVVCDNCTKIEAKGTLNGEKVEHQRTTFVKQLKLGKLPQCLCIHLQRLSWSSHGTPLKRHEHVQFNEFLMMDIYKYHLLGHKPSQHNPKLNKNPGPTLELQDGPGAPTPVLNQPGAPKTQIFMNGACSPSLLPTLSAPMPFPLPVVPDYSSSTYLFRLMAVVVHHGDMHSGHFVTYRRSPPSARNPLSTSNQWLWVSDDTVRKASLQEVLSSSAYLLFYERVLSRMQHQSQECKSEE

| SMILES | IC50 [nM] |
| --- | --- |
| N#CN1CC[C@@H](NC(=O)c2ccc(-c3cnc4nccn4c3)cc2F)C1 [Example 109, (R)-N-(1-cyanopyrrolidin-3-yl)-2-fluoro-4-(imidazo[1,2-a]pyrimidin-6-yl)benzamide] | 100 to 1000 |
| N#Cc1cccc(-c2ccc3nc(C(=O)N[C@@H]4CCN(C#N)C4)cn3c2)c1 [Example 116, (R)-6-(3-cyanophenyl)-N-(1-cyanopyrrolidin-3-yl)imidazo[1,2-a]pyridine-2-carboxamide] | < 100 |
| N#Cc1ccc(-c2ccc3nc(C(=O)N[C@@H]4CCN(C#N)C4)cn3c2)cc1 [Example 117, (R)-6-(4-cyanophenyl)-N-(1-cyanopyrrolidin-3-yl)imidazo[1,2-a]pyridine-2-carboxamide] | 100 to 1000 |
| N#CN1CC[C@@H](NC(=O)c2ccc(-c3ccc4nccn4c3)cc2F)C1 [Example 118, (R)-N-(1-cyanopyrrolidin-3-yl)-2-fluoro-4-(imidazo[1,2-a]pyridin-6-yl)benzamide] | < 100 |
| N#CN1CC[C@@H](NC(=O)c2ccc(-c3ccnc(N4CCOCC4)c3)cc2F)C1 [Example 119, (R)-N-(1-cyanopyrrolidin-3-yl)-2-fluoro-4-(2-morpholinopyridin-4-yl)benzamide] | < 100 |
| Cn1ccc2cc(-c3cnc(C(=O)N[C@@H]4CCN(C#N)C4)c(F)c3)cnc21 [Example 121, (R)-N-(1-cyanopyrrolidin-3-yl)-3-fluoro-5-(1-methyl-1H-pyrrolo[2,3-b]pyridin-5-yl)picolinamide] | < 100 |
| N#CN1CC[C@@H](NC(=O)c2ncc(-c3ccc(F)cc3)cc2Cl)C1 [Example 123, (R)-3-chloro-N-(1-cyanopyrrolidin-3-yl)-5-(4-fluorophenyl)picolinamide] | < 100 |
| Cn1cc(-c2ccc3nc(C(=O)N[C@@H]4CCN(C#N)C4)cn3c2)cn1 [Example 124, (R)-N-(1-cyanopyrrolidin-3-yl)-6-(1-methyl-1H-pyrazol-4-yl)imidazo[1,2-a]pyridine-2-carboxamide] | 100 to 1000 |
| Cc1noc(C)c1-c1ccc2cc(C(=O)N[C@@H]3CCN(C#N)C3)[nH]c2c1 [Example 128, (R)-N-(1-cyanopyrrolidin-3-yl)-6-(3,5-dimethylisoxazol-4-yl)-1H-indole-2-carboxamide] | < 100 |
| Cc1nn(C)cc1-c1ccc2cc(C(=O)N[C@@H]3CCN(C#N)C3)[nH]c2c1 [Example 129, (R)-N-(1-cyanopyrrolidin-3-yl)-6-(1,3-dimethyl-1H-pyrazol-4-yl)-1H-indole-2-carboxamide] | < 100 |
| N#CN1CC[C@@H](NC(=O)N2CC(Oc3ccccc3)C2)C1 [Example 133, (R)-N-(1-cyanopyrrolidin-3-yl)-3-phenoxyazetidine-1-carboxamide] | 100 to 1000 |
| N#CN1CC[C@@H](NC(=O)N2CC(c3nc4ccccc4[nH]3)C2)C1 [Example 134, (R)-3-(1H-benzo[d]imidazol-2-yl)-N-(1-cyanopyrrolidin-3-yl)azetidine-1-carboxamide] | 100 to 1000 |

Further lines, results first:

| IC50 [nM] | SMILES |
| --- | --- |
| 100 to 1000 | N#CN1CC[C@@H](NC(=O)c2cc(-c3cccnc3)[nH]n2)C1 [Example 103, (R)-N-(1-cyanopyrrolidin-3-yl)-5-(pyridin-3-yl)-1H-pyrazole-3-carboxamide] |
| 100 to 1000 | Cn1cc(-c2cccc(C(=O)N[C@@H]3CCN(C#N)C3)c2F)cn1 [Example 104, (R)-N-(1-cyanopyrrolidin-3-yl)-2-fluoro-3-(1-methyl-1H-pyrazol-4-yl)benzamide] |
| < 100 | Cc1nccc(-c2ccc(C(=O)N[C@@H]3CCN(C#N)C3)c(F)c2)n1 [Example 105, (R)-N-(1-cyanopyrrolidin-3-yl)-2-fluoro-4-(2-methylpyrimidin-4-yl)benzamide] |
| 100 to 1000 | Cn1cc(-c2ccc(C(=O)N[C@@H]3CCN(C#N)C3)nc2)cn1 [Example 106, (R)-N-(1-cyanopyrrolidin-3-yl)-5-(1-methyl-1H-pyrazol-4-yl)picolinamide] |
| 100 to 1000 | Cn1cc(-c2ccc(F)c(C(=O)N[C@@H]3CCN(C#N)C3)c2)cn1 [Example 107, (R)-N-(1-cyanopyrrolidin-3-yl)-2-fluoro-5-(1-methyl-1H-pyrazol-4-yl)benzamide] |
| 100 to 1000 | N#CN1CC[C@@H](NC(=O)c2ccc(-c3ccncn3)cc2F)C1 [Example 108, (R)-N-(1-cyanopyrrolidin-3-yl)-2-fluoro-4-(pyrimidin-4-yl)benzamide] |
| 100 to 1000 | COc1cc(-c2cnn(C)c2)ccc1C(=O)N[C@@H]1CCN(C#N)C1 [Example 110, (R)-N-(1-cyanopyrrolidin-3-yl)-2-methoxy-4-(1-methyl-1H-pyrazol-4-yl)benzamide] |
| 100 to 1000 | Cn1cc(-c2ccc(C(=O)N[C@@H]3CCN(C#N)C3)cn2)cn1 [Example 111, (R)-N-(1-cyanopyrrolidin-3-yl)-6-(1-methyl-1H-pyrazol-4-yl)nicotinamide] |
| 100 to 1000 | Cn1cc(-c2cc(F)c(C(=O)N[C@@H]3CCN(C#N)C3)c(F)c2)cn1 [Example 113, (R)-N-(1-cyanopyrrolidin-3-yl)-2,6-difluoro-4-(1-methyl-1H-pyrazol-4-yl)benzamide] |
| 100 to 1000 | Cn1cc(-c2ccc3c(C(=O)N[C@@H]4CCN(C#N)C4)cnn3c2)cn1 [Example 114, (R)-N-(1-cyanopyrrolidin-3-yl)-6-(1-methyl-1H-pyrazol-4-yl)pyrazolo[1,5-a]pyridine-3-carboxamide] |
| 100 to 1000 | COc1c(-c2cnn(C)c2)ccc(C(=O)N[C@@H]2CCN(C#N)C2)c1F [Example 115, (R)-N-(1-cyanopyrrolidin-3-yl)-2-fluoro-3-methoxy-4-(1-methyl-1H-pyrazol-4-yl)benzamide] |
| < 100 | Cn1ncc2cc(-c3cnc(C(=O)N[C@@H]4CCN(C#N)C4)c(F)c3)ccc21 [Example 120, (R)-N-(1-cyanopyrrolidin-3-yl)-3-fluoro-5-(1-methyl-1H-indazol-5-yl)picolinamide] |
| 100 to 1000 | Cc1nn(C)cc1-c1cnc(C(=O)N[C@@H]2CCN(C#N)C2)c(F)c1 [Example 122, (R)-N-(1-cyanopyrrolidin-3-yl)-5-(1,3-dimethyl-1H-pyrazol-4-yl)-3-fluoropicolinamide] |
| 100 to 1000 | Cc1nn(C)cc1-c1ccc2nc(C(=O)N[C@@H]3CCN(C#N)C3)cn2c1 [Example 125, (R)-N-(1-cyanopyrrolidin-3-yl)-6-(1,3-dimethyl-1H-pyrazol-4-yl)imidazo[1,2-a]pyridine-2-carboxamide] |
| < 100 | Cn1cc(-c2ccc3[nH]nc(C(=O)N[C@@H]4CCN(C#N)C4)c3c2)cn1 [Example 126, (R)-N-(1-cyanopyrrolidin-3-yl)-5-(1-methyl-1H-pyrazol-4-yl)-1H-indazole-3-carboxamide] |
| 100 to 1000 | Cn1cc(-c2ccc3c(C(=O)N[C@@H]4CCN(C#N)C4)n[nH]c3c2)cn1 [Example 127, (R)-N-(1-cyanopyrrolidin-3-yl)-6-(1-methyl-1H-pyrazol-4-yl)-1H-indazole-3-carboxamide] |
| < 100 | Cn1cc(-c2ccc3[nH]c(C(=O)N[C@@H]4CCN(C#N)C4)cc3c2)cn1 [Example 130, (R)-N-(1-cyanopyrrolidin-3-yl)-5-(1-methyl-1H-pyrazol-4-yl)-1H-indole-2-carboxamide] |
| 100 to 1000 | CCn1cc(-c2cnc(C(=O)N[C@@H]3CCN(C#N)C3)cc2C)cn1 [Example 132, (R)-N-(1-cyanopyrrolidin-3-yl)-5-(1-ethyl-1H-pyrazol-4-yl)-4-methylpicolinamide] |
